Experiments:
Type in all cases: functional, Homo sapiens
U2OS [1] = experiment: (§1) Here: values are normalized to the negative (DMSO; defined as 0% autophagy induction) and positive (250nM Torin1; mTOR inhibitor; defined as maximal inducer of autophagy = 100%) control compounds and represented as % of autophagy induction. […] The impact of autophagy induction on cells is complex and depends on the affected target. As such, the magnitude of a phenotype may not be equally mirrored in the %-value of autophagy induction and vice versa. The dynamics of the induction may indicate the mode of activation: e.g. activation via phosphorylation or a signaling cascade may occur fast, while activation via transcription factors may take considerably longer. […] Of note, treatment concentrations may be sub-optimal for specific compounds, leading to false negative annotations.; conditions: Culturing Media DMEM, 1 % Penicillin/Streptomycin, 10% Fetal bovin serum Add-On: No, Screening Media Control DMEM, Screening Media Samples DMEM
TERT-RPE1 = experiment: as §1; conditions: Culturing Media DMEM/F12 (1:1), 1 % Penicillin/Streptomycin, 10% Fetal bovin serum Add-On: No, Screening Media Control DMEM/F12 (1:1), Screening Media Samples DMEM/F12 (1:1)
U2OS [2] = experiment: as §1; conditions: Culturing Media DMEM, 1 % Penicillin/Streptomycin, 10% Fetal bovin serum Add-On: No, Screening Media Control DMEM, Screening Media Samples DMEM; remark: listed apart in the source
[3] = Compound Concentration 0.5 uM, Timepoint 12 hours
[4] = Compound Concentration 0.5 uM, Timepoint 24 hours
[5] = Compound Concentration 0.5 uM, Timepoint 36 hours
[6] = Compound Concentration 0.5 uM, Timepoint 60 hours
[7] = Compound Concentration 2 uM, Timepoint 12 hours
[8] = Compound Concentration 2 uM, Timepoint 24 hours
[9] = Compound Concentration 2 uM, Timepoint 36 hours
[10] = Compound Concentration 2 uM, Timepoint 60 hours
[11] = Compound Concentration 10 uM, Timepoint 12 hours
[12] = Compound Concentration 10 uM, Timepoint 24 hours
[13] = Compound Concentration 10 uM, Timepoint 36 hours
[14] = Compound Concentration 10 uM, Timepoint 60 hours

How did the autophagy induction (U2OS [1]; [3]) turn out when `COc1ccnc(N2CCC3(CCCN(Cc4c[nH]c5ccccc45)C3=O)CC2)n1` was run?
The autophagy induction was 6.725%.

And the autophagy induction (U2OS [1]; [4])?
The autophagy induction was 2.47%.

What about the autophagy induction (U2OS [1]; [5]) of the same compound?
The autophagy induction was 0.2405%.

And the autophagy induction (U2OS [1]; [6])?
The autophagy induction was -0.1995%.

What about the autophagy induction (U2OS [1]; [7]) of the same compound?
The autophagy induction was -9.208%.

What about the autophagy induction (U2OS [1]; [8]) of the same compound?
Its autophagy induction is -5.729%.

And the autophagy induction (U2OS [1]; [9])?
Its autophagy induction is -5.289%.

And the autophagy induction (U2OS [1]; [10])?
Its autophagy induction is -3.421%.

What about the autophagy induction (U2OS [1]; [11]) of the same compound?
Its autophagy induction is 2.478%.

What about the autophagy induction (U2OS [1]; [12]) of the same compound?
Its autophagy induction is -1.409%.

What about the autophagy induction (U2OS [1]; [13]) of the same compound?
Its autophagy induction is -1.806%.

What about the autophagy induction (U2OS [1]; [14]) of the same compound?
The autophagy induction was -1.259%.

And the autophagy induction (TERT-RPE1; [3])?
The autophagy induction was -7.48%.

What about the autophagy induction (TERT-RPE1; [4]) of the same compound?
Its autophagy induction is -12.7476%.

And the autophagy induction (TERT-RPE1; [5])?
Its autophagy induction is -12.8002%.

And the autophagy induction (TERT-RPE1; [6])?
Its autophagy induction is -18.0789%.

What about the autophagy induction (TERT-RPE1; [7]) of the same compound?
The autophagy induction was -3.2646%.

And the autophagy induction (TERT-RPE1; [8])?
Its autophagy induction is -8.655%.

And the autophagy induction (TERT-RPE1; [9])?
The autophagy induction was -9.0208%.

And the autophagy induction (TERT-RPE1; [10])?
Its autophagy induction is -13.8382%.

What about the autophagy induction (TERT-RPE1; [11]) of the same compound?
Its autophagy induction is -6.8833%.

And the autophagy induction (TERT-RPE1; [12])?
The autophagy induction was -7.1204%.

What about the autophagy induction (TERT-RPE1; [13]) of the same compound?
The autophagy induction was -8.728%.

What about the autophagy induction (TERT-RPE1; [14]) of the same compound?
The autophagy induction was -9.531%.

What about the autophagy induction (U2OS [2]; [3]) of the same compound?
Its autophagy induction is -0.8639%.

And the autophagy induction (U2OS [2]; [4])?
The autophagy induction was 3.062%.

And the autophagy induction (U2OS [2]; [5])?
The autophagy induction was -2.159%.

What about the autophagy induction (U2OS [2]; [6]) of the same compound?
Its autophagy induction is 0.6428%.

What about the autophagy induction (U2OS [2]; [7]) of the same compound?
The autophagy induction was 14.1219%.

What about the autophagy induction (U2OS [2]; [8]) of the same compound?
The autophagy induction was 7.888%.

What about the autophagy induction (U2OS [2]; [9]) of the same compound?
Its autophagy induction is 7.881%.

What about the autophagy induction (U2OS [2]; [10]) of the same compound?
The autophagy induction was 5.533%.

And the autophagy induction (U2OS [2]; [11])?
The autophagy induction was -0.07351%.

What about the autophagy induction (U2OS [2]; [12]) of the same compound?
Its autophagy induction is -0.8676%.

And the autophagy induction (U2OS [2]; [13])?
The autophagy induction was 0.7982%.

And the autophagy induction (U2OS [2]; [14])?
The autophagy induction was -3.188%.

For `Cc1nc(C(=O)N2CCC[C@H]2Cc2nnc(-c3ccccc3)o2)c(-c2ccccc2F)s1`, which autophagy induction (U2OS [1]; [3]) is on record?
Its autophagy induction is 4.15%.

And the autophagy induction (U2OS [1]; [4])?
Its autophagy induction is -0.2081%.

What about the autophagy induction (U2OS [1]; [5]) of the same compound?
Its autophagy induction is -2.227%.

What about the autophagy induction (U2OS [1]; [6]) of the same compound?
The autophagy induction was -2.102%.

And the autophagy induction (U2OS [1]; [7])?
Its autophagy induction is 0.7749%.

What about the autophagy induction (U2OS [1]; [8]) of the same compound?
Its autophagy induction is -1.115%.

And the autophagy induction (U2OS [1]; [9])?
Its autophagy induction is -1.752%.

What about the autophagy induction (U2OS [1]; [10]) of the same compound?
The autophagy induction was -2.832%.

And the autophagy induction (U2OS [1]; [11])?
The autophagy induction was 4.1851%.

What about the autophagy induction (U2OS [1]; [12]) of the same compound?
Its autophagy induction is 1.702%.

And the autophagy induction (U2OS [1]; [13])?
Its autophagy induction is -1.044%.

And the autophagy induction (U2OS [1]; [14])?
Its autophagy induction is -3.102%.

And the autophagy induction (TERT-RPE1; [3])?
Its autophagy induction is -3.536%.

What about the autophagy induction (TERT-RPE1; [4]) of the same compound?
The autophagy induction was -6.3015%.

And the autophagy induction (TERT-RPE1; [5])?
The autophagy induction was -4.185%.

What about the autophagy induction (TERT-RPE1; [6]) of the same compound?
Its autophagy induction is -7.252%.

What about the autophagy induction (TERT-RPE1; [7]) of the same compound?
The autophagy induction was -4.803%.

What about the autophagy induction (TERT-RPE1; [8]) of the same compound?
Its autophagy induction is -6.585%.

And the autophagy induction (TERT-RPE1; [9])?
The autophagy induction was -5.999%.

And the autophagy induction (TERT-RPE1; [10])?
The autophagy induction was -9.333%.

And the autophagy induction (TERT-RPE1; [11])?
The autophagy induction was 0.2716%.

What about the autophagy induction (TERT-RPE1; [12]) of the same compound?
The autophagy induction was 0.5174%.

What about the autophagy induction (TERT-RPE1; [13]) of the same compound?
Its autophagy induction is 2.2318%.

And the autophagy induction (TERT-RPE1; [14])?
Its autophagy induction is 3.905%.

What about the autophagy induction (U2OS [2]; [3]) of the same compound?
The autophagy induction was 13.4134%.

And the autophagy induction (U2OS [2]; [4])?
Its autophagy induction is 8.147%.

And the autophagy induction (U2OS [2]; [5])?
The autophagy induction was 0.9843%.

What about the autophagy induction (U2OS [2]; [6]) of the same compound?
The autophagy induction was 3.676%.

What about the autophagy induction (U2OS [2]; [7]) of the same compound?
The autophagy induction was 5.837%.

What about the autophagy induction (U2OS [2]; [8]) of the same compound?
Its autophagy induction is 5.052%.

And the autophagy induction (U2OS [2]; [9])?
Its autophagy induction is 3.424%.

And the autophagy induction (U2OS [2]; [10])?
The autophagy induction was -6.267%.

And the autophagy induction (U2OS [2]; [11])?
Its autophagy induction is 0.7146%.

What about the autophagy induction (U2OS [2]; [12]) of the same compound?
Its autophagy induction is 3.711%.

What about the autophagy induction (U2OS [2]; [13]) of the same compound?
Its autophagy induction is -0.07108%.

And the autophagy induction (U2OS [2]; [14])?
The autophagy induction was -6.907%.

Source: ChEMBL document CHEMBL5724696, “Autophagy assay results for EUbOPEN Chemogenomics Library” (2024)
